# Molecular target: T1, LRRK2 (endogenous, HiBit tagged) (Homo sapiens, UniProt Q5S007)
# T1 construct: endogenous in cells; host or cells: HEK293 cells with HiBit knock-in at the endogenous LRRK2 locus, stably expressing firefly luciferase
# Test: Endogenous LRRK2 degradation assay, endogenous gene C-terminally HiBit-tagged in HEK293 cells (Nano-Glo Dual Luciferase)
# Type: cell-based
# Settings: endogenous HiBit-tagged LRRK2, HEK293 cells, 24 hours; for Dmax: read-out: **Endogenous WT Dmax (%); for DC50: read-out: *Endogenous WT DC50
# Excerpt: Exemplary Assay for Testing LRRK2 Degradation Driven by Exemplary Hetero-Bifunctional Compounds Designed to Target LRRK2
# The assay measures the degradation of LRRK2 in cells where the C-terminus (3′) of the endogenous gene has been tagged with a HiBit sequence in HEK293 cells. The cells also express firefly luciferase, expressed from a Cytomegalovirus promoter and introduced into the HiBit tagged cells and stably expressed. The Nano-Glo® Dual Luciferase Reporter Assay System (Promega™, Madison, WI) was utilized.
# Day 1—Preparation of Compound and Assay Plates. Two sets of plates were prepared: a triplicate set for the HiBit assay in white 384-well plates and a triplicate set of plate in black 384-well plates for the Alamar Blue cell viability assay. Briefly, the growth media (DMEM+Glutamax-10% fetal bovine serum-1% Penicillin-Streptomicin) from two T128 flasks was aspirated from the flasks. Cells were washed with Dulbecco's Phosphate Buffered Saline (dPBS) and aspirated. Trypsin (3 mL per flask) was added and the flasks were incubated for 2-3 minutes.
# Ten mL of OptiMEM-10% fetal bovine-1% penicillin-streptomycin (hereinafter, “OptiMEM media”) was added to the flask and the cells and transferred to a 50 mL conical tube. A cell count (25 ul of cell into Effendorf vial+25 ul of Trypan Blue Stain) was performed and the cell density adjusted to 15,000 cell/45 μl/well (3.33×10^5/mL) in OptiMEM media.
# Fourty-five microliters of the cell suspension (15,000 cells) was aliquoted to each well of the white 384-well plate. The plates incubated at room temperature for 10 minutes before being placed in the 37° C.+5% CO2 incubator overnight
# Day 2—Compound Treatment. Exemplary compounds were prepared at a 1 mM starting concentration and 1:3 serial dilution for 11 points CRC prepared and stored in the freezer. The Master Compound Plate was thawed overnight at room temperature. DMSO (20 μL) was added into column 24 of the Master Compound Plate for negative control and 20 μL of 300 μM of Compound 4 in column 23 as positive control.
# Intermediate Compound Plate with 4% DMSO in OptiMEM Media. DMSO was added to warm OptiMEM media to achieve a 4% DMSO solution (approximately 50 mL/plate). One-hundred microliters of the OptiMEM-4% DMSO was aliquoted to each well of 384-Well Deep Well Microplates.
# The Master Compound Plate and the Intermediate Compound Plate were spun down.
# One microliter of compound from the Master Compound Plate was transferred into the Intermediate plate (a 1:100 dilution). The diluted mixture was mixed and 5 μL transferred into the assay plate (a 1:10 dilution) for the final starting concentration of 1 μM. The Treated Assay plates were incubated for 24 hours at 37° C.+5% CO2. The Master Compound Plate was sealed and store at room temperature for a second run that was performed within a week.
# Day 3—HiBit Assay. Five microliters of Alamar Blue was added to each well of the black 384-well plates. The plates were incubated for 2 hours in the incubator (37° C.+5% CO2) and at room temperature for one hour. Fluorescence of each plate was read on a plated reader for the Alamar Blue viability assay.
# One set of white assay plates was warmed to room temperature (45 minute).
# The One Glo luciferase mixture was prepared. The media from white 384-well assay plates was aspirated. Twenty-five μL of the One Glo luciferase mixture was added to each well of the assay plates. The plates were incubated on the bench (room temperature) for 45 minutes, including 10 minutes of shaking at 700 rpm. The luminescence of each plate was read on a plate reader.
# 1:100 DLR substrate and 1:100 LgBiT Protein dilution were added to the Promega Stop and Glo buffer and mixed just before addition to assay plates. Twenty-five microliters of Stop and Glo mixture was added to each well. Assay plates incubated for at least 45 minutes, including 10 minutes of shaking at 700 rpm. The luminescence of each plate was read on a plate reader.
# Analysis of LRRK2 HiBit Screening assays. […]
# T1 sequence (Q5S007 whole entry): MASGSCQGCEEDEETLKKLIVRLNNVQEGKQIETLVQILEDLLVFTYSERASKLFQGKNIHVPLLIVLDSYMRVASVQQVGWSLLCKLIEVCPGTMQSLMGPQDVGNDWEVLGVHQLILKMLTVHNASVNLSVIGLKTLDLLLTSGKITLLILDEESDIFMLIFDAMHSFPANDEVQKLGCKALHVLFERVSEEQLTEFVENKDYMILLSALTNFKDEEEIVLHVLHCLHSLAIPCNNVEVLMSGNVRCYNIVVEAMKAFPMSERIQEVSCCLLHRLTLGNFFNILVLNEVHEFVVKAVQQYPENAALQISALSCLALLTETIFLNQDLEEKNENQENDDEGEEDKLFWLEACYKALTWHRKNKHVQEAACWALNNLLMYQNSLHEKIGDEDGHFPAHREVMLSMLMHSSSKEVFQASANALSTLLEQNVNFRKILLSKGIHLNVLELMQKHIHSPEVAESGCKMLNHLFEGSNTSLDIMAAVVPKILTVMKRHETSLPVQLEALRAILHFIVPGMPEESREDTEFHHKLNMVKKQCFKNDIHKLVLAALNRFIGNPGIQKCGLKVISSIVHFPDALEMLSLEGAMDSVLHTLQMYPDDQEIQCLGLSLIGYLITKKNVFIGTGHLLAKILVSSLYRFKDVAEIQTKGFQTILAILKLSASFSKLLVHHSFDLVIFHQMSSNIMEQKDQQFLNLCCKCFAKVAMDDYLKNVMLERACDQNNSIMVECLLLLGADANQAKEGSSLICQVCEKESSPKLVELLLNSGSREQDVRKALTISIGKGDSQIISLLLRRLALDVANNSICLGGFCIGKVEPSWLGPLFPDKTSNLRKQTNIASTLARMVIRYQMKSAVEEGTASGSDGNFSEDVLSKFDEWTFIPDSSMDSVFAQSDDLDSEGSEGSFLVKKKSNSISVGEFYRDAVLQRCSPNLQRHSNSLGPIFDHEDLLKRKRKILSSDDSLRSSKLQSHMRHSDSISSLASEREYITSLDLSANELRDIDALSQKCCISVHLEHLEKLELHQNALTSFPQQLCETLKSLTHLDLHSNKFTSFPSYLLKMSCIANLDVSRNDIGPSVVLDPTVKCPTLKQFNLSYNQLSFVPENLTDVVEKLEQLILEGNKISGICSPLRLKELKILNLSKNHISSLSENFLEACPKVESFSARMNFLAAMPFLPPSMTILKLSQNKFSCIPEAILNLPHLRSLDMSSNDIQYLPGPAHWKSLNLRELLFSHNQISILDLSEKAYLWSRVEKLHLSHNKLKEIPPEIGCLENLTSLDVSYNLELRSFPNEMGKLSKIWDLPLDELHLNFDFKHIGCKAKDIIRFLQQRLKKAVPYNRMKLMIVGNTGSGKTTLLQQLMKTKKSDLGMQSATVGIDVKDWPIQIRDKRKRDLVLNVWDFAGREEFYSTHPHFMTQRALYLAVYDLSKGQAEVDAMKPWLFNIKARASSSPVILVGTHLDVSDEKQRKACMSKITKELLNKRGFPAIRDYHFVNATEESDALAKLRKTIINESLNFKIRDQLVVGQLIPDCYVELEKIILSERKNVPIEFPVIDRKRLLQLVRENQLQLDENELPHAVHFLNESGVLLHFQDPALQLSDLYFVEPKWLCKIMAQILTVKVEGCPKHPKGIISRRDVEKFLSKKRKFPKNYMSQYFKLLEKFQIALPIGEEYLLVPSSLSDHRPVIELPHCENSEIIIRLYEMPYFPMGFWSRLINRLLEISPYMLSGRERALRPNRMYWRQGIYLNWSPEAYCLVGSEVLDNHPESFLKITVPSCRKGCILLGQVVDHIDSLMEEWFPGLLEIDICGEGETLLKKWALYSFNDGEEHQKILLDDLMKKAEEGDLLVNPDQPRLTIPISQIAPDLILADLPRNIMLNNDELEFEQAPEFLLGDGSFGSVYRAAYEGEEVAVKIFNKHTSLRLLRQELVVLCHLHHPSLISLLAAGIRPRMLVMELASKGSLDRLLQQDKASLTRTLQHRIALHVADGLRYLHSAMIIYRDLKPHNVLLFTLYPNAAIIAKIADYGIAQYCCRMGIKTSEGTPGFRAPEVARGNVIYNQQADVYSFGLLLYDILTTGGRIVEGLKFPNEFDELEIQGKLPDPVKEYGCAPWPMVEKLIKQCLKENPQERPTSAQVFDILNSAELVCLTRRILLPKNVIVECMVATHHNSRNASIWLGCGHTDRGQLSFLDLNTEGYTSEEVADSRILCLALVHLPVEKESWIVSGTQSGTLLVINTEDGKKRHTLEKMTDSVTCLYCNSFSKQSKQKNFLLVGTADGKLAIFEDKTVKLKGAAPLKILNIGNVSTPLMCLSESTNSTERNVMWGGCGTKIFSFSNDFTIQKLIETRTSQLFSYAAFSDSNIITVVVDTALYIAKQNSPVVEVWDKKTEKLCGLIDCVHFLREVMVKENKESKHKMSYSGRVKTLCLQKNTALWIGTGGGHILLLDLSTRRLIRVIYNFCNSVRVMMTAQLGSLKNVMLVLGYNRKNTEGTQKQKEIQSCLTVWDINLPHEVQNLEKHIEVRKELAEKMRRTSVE
Structure (SMILES),Dmax [%],DC50 [nM]
"CC1(Oc2ccc3[nH]nc(-c4cc(N5CCC(CN6CCN(CC7CCN(c8cc9c(cc8F)C(=O)N(C8CCC(=O)NC8=O)C9)CC7)CC6)CC5)ncn4)c3c2)CC1 (centres unmarked) [Compound 180, 3-[6-fluoro-5-[4-[[4-[[1-[6-[5-(1-methylcyclopropoxy)-1H-indazol-3-yl]pyrimidin-4-yl]-4-piperidyl]methyl]piperazin-1-yl]methyl]-1-piperidyl]-1-oxo-isoindolin-2-yl]piperidine-2,6-dione]",≥ 70,< 10
"CC1(Oc2ccc3[nH]nc(-c4cc(N5CCC(CN6CCN(CC7CCN(c8ccc9c(c8F)CN(C8CCC(=O)NC8=O)C9=O)CC7)CC6)CC5)ncn4)c3c2)CC1 (centres unmarked) [Compound 181, 3-[4-fluoro-5-[4-[[4-[[1-[6-[5-(1-methylcyclopropoxy)-1H-indazol-3-yl]pyrimidin-4-yl]-4-piperidyl]methyl]piperazin-1-yl]methyl]-1-piperidyl]-1-oxo-isoindolin-2-yl]piperidine-2,6-dione]",≥ 70,< 10
"CC1(Oc2ccc3[nH]nc(-c4cc(N5CCN(CC6(F)CCN(CC7CCN(c8ccc9c(c8F)CN(C8CCC(=O)NC8=O)C9=O)CC7)CC6)CC5)ncn4)c3c2)CC1 (centres unmarked) [Compound 182, 3-[4-fluoro-5-[4-[[4-fluoro-4-[[4-[6-[5-(1-methylcyclopropoxy)-1H-indazol-3-yl]pyrimidin-4-yl]piperazin-1-yl]methyl]-1-piperidyl]methyl]-1-piperidyl]-1-oxo-isoindolin-2-yl]piperidine-2,6-dione]",≥ 70,< 10

# Second part, the molecule after the results:
Dmax [%],DC50 [nM],Structure (SMILES)
≥ 70,< 10,"CC1(Oc2ccc3n[nH]c(-c4cc(N5CCN(CC6(F)CCN(CC7CCN(c8cc9c(cc8F)C(=O)N(C8CCC(=O)NC8=O)C9)CC7)CC6)CC5)ncn4)c3c2)CC1 (centres unmarked) [Compound 183, 3-[6-fluoro-5-[4-[[4-fluoro-4-[[4-[6-[5-(1-methylcyclopropoxy)-2H-indazol-3-yl]pyrimidin-4-yl]piperazin-1-yl]methyl]-1-piperidyl]methyl]-1-piperidyl]-1-oxo-isoindolin-2-yl]piperidine-2,6-dione]"
≥ 70,< 10,"C[C@H]1CN(c2cc(-c3[nH]nc4ccc(OC5(C)CC5)cc34)ncn2)CCN1CCN1CCC(CN2CCN(c3ccc4c(c3F)CN(C3CCC(=O)NC3=O)C4=O)CC2)CC1 (stereo partly drawn) [Compound 184, 3-[4-fluoro-5-[4-[[1-[2-[(2S)-2-methyl-4-[6-[5-(1-methylcyclopropoxy)-2H-indazol-3-yl]pyrimidin-4-yl]piperazin-1-yl]ethyl]-4-piperidyl]methyl]piperazin-1-yl]-1-oxo-isoindolin-2-yl]piperidine-2,6-dione]"
≥ 70,< 10,"CC1(Oc2cc3c(-c4cc(N5CCC(CN6CCN(CC7CCN(c8ccc9c(c8F)CN(C8CCC(=O)NC8=O)C9=O)CC7)CC6)CC5)ncn4)n[nH]c3cc2F)CC1 (centres unmarked) [Compound 186, 3-[4-fluoro-5-[4-[[4-[[1-[6-[6-fluoro-5-(1-methylcyclopropoxy)-1H-indazol-3-yl]pyrimidin-4-yl]-4-piperidyl]methyl]piperazin-1-yl]methyl]-1-piperidyl]-1-oxo-isoindolin-2-yl]piperidine-2,6-dione]"
≥ 70,< 10,"C[C@H]1CN(c2cc(-c3n[nH]c4ccc(OC5(C)CC5)cc34)ncn2)CCN1CC1(F)CCN(CC2CCN(c3ccc4c(c3F)CN(C3CCC(=O)NC3=O)C4=O)CC2)CC1 (stereo partly drawn) [Compound 187, 3-[4-fluoro-5-[4-[[4-fluoro-4-[[(2S)-2-methyl-4-[6-[5-(1-methylcyclopropoxy)-1H-indazol-3-yl]pyrimidin-4-yl]piperazin-1-yl]methyl]-1-piperidyl]methyl]-1-piperidyl]-1-oxo-isoindolin-2-yl]piperidine-2,6-dione]"
